Consider one molecule from publication PMC7756445, “A Novel Prodrug of a nNOS Inhibitor with Improved Pharmacokinetic Potential” (Chemmedchem, 2020).

By melting point is commonly meant the temperature of the solid-liquid transition.

Series [1] in a line: Stability in human plasma. It is filed as in vitro ADME. As to conditions: 37 °C. As to the method:
Finally, the stability in human plasma was assessed.
Human plasma was purchased from 3H Biomedical (Uppsala, Sweden). For the determination of enzymatic stability in human plasma, the reactions were initiated by adding 50 μL of compound stock solution to 450 μL of pre‐heated plasma, and incubated at 37±0.5 °C. At appropriate time intervals, 50 μL of the plasma were taken and deproteinized by the addition of 450 μL of CH3CN. After mixing and centrifugation for 10 min at 10 000 rpm, the supernatant (5 μL) was analyzed by HPLC, adopting the same chromatographic conditions described for chemical stability evaluations. ^[48]

The next series addresses T1, B5 and B5R (Homo sapiens, UniProt O43169+P00387).
T1 sequence (O43169 16-150): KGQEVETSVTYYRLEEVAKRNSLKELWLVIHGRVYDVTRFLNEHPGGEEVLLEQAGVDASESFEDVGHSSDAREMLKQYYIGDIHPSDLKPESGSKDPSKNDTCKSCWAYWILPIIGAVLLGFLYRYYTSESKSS
T1 sequence (P00387 24-301 limits assumed): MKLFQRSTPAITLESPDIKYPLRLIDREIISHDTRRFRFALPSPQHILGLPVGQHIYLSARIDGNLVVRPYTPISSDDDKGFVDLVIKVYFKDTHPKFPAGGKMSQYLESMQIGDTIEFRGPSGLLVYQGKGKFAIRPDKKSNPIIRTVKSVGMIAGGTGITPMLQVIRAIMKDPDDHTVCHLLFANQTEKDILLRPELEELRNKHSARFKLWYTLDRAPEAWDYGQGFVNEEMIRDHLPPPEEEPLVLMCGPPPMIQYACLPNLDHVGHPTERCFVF
As to the kind of experiment: Bioconversion control experiment without mARC. It is filed as in vitro ADME. As to conditions: B5 and B5R only, no mARC; NADH assay.

The test system of a further series is pepsin, pancreatin. Description: Enzymatic stability in simulated fluids with pepsin or pancreatin. The class given is in vitro ADME. As to conditions: 37 °C, 2 h. The method, then:
The effects of gastrointestinal digestion are important parameters to be taken into consideration in the determination of bioavailability and bioactivity of new compounds. In particular, the luminal instability, due to the pH or enzymatic degradation, may compromise the transmucosal transport of the prodrug designed for permeability enhancement. Therefore, in this study the chemical stability of compound 2 was assessed to exclude any undesirable degradation at acid and physiological environments. Hydrochloric acid buffer (pH 2.0) as a nonenzymatic simulated gastric fluid (SGF), and phosphate buffer (pH 7.4) as nonenzymatic simulated intestinal fluid (SIF) were employed to evaluate the chemical stability. […] For chemical stability, a 0.01 M hydrochloric acid buffer (pH 1.3) and 0.01 M phosphate buffer (pH 7.4) were used. To assess enzymatic stability, the same hydrochloric buffer with and without pepsin (10 or 40 mg/mL) and phosphate buffer with and without pancreatin (10 or 40 mg/mL) were used. […] The mixture was vortexed and centrifuged at 2 °C and 10 000 rpm, Swing‐out Rotor, for 10 min, and the content of tested compound in the supernatant was analyzed by HPLC. Experiments were run in triplicate and the mean values of the rate constants were calculated.

`C/C(=N\O)NC(c1ccccc1)c1ccccc1` [Compound 2, (1E)‐N‐(diphenylmethyl)‐N′‐hydroxyethanimidamide] displayed a melting point of 112 to 115 °C. Also, the “stability in human plasma” value in series [1] is reported as “stable”. The “conversion to the amidine 1 in control experiment” value at B5 and B5R is “no conversion”. Moreover, the “enzymatic stability in SGF with pepsin” value in the series with pepsin, pancreatin (pH 1.3, pepsin 10 or 40 mg/mL) is “stable”. Besides, the “enzymatic stability in SIF with pancreatin” value in the series with pepsin, pancreatin (pH 7.4, pancreatin 10 or 40 mg/mL) is on record as “stable”.
